We go through 56 compounds from patent US6525059B1, “Substituted pyrazoles as p38 kinase inhibitors” (G. D. Searle & Company, priority 1998, dated 2003).

Broadly, the IC50 is the concentration that inhibits the measured activity by half.

T1 sequence (Q16539 whole entry): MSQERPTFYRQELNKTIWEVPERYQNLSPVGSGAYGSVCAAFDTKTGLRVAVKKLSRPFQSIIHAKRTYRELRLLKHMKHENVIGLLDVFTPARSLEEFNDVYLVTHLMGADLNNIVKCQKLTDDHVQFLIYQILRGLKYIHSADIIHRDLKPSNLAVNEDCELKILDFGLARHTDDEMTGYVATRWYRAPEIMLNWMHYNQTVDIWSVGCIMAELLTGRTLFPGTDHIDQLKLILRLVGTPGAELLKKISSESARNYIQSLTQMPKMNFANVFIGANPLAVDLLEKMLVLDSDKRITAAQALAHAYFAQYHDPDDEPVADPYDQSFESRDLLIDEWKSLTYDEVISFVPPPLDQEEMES

One experiment concerns the target T1, human p38 kinase alpha (Homo sapiens, UniProt Q16539).
T1 construct: The coding region of the human p38a cDNA was obtained by PCR-amplification from RNA isolated from the human monocyte cell line THP.1; GST (N); made in house; host or cells: E. coli DH10B
Put plainly: p38 kinase in vitro assay, phosphorylation of biotinylated PHAS-I with gamma 32P-ATP. In kind it is biochemical. The conditions noted are these: @ 1.0 uM. The protocol:
The ability of compounds to inhibit human p38 kinase alpha was evaluated using two in vitro assay methods. In the first method activated human p38 kinase alpha phosphorylates a biotinylated substrate, PHAS-I (phosphorylated heat and acid stable protein-insulin inducible), in the presence of gamma ^32P-ATP (^32P-ATP). PHAS-I was biotinylated prior to the assay and provides a means of capturing the substrate which is phosphorylated during the assay. p38 Kinase was activated by MKK6. Compounds were tested in 10 fold serial dilutions over the range of 100 μM to 0.001 μM using 1% DMSO. Each concentration of inhibitor was tested in triplicate.
All reactions were carried out in 96 well polypropylene plates. Each reaction well contained 25 mM HEPES pH 7.5, 10 mM magnesium acetate and 50 μM unlabeled ATP. […] The reaction proceeded either for one hour or overnight at 30° C.
Following incubation, 20 μl of reaction mixture was transferred to a high capacity streptavidin coated filter plate (SAM-streptavidin-matrix, Promega) prewetted with phosphate buffered saline. […] Filter plates were air dried and 20 μl of scintillant was added. The plates were sealed and counted.
As to `COC(=O)C(=O)NCc1[nH]nc(-c2ccc(F)cc2)c1-c1ccncc1` [Example B-0025], the “P38 alpha kinase % inhib @ conc.” value is given as 89.0% @ 1.0 uM. Still for that read-out and setting: the same measure for `O=C(NCc1[nH]nc(-c2ccc(F)cc2)c1-c1ccncc1)[C@@H]1C[C@@H]1c1ccccc1` [Example B-0002]: 71.1% @ 1.0 uM. Same read-out and setting: as for `O=C(CCC1CC=CC1)NCc1[nH]nc(-c2ccc(F)cc2)c1-c1ccncc1` [Example B-0038], the figure is 71.0% @ 1.0 uM.

The same experiment, now with this note: @ 1.0 uM; read-out: P38 alpha kinase % inhib @ conc.
`COc1cccc(OC)c1C(=O)NCc1[nH]nc(-c2ccc(F)cc2)c1-c1ccncc1` [Example B-0070]: the inhibition at 1 µM came to 92%. Same read-out and setting: as for `O=C(NCc1[nH]nc(-c2ccc(F)cc2)c1-c1ccncc1)c1ccccc1F` [Example B-0074], the figure is 92%. On the same count and under the same terms, as for `O=C(OCc1ccccc1C(=O)NCc1[nH]nc(-c2ccc(F)cc2)c1-c1ccncc1)c1ccccc1` [Example B-0092], the figure is 97%; as for `O=C(NCc1[nH]nc(-c2ccc(F)cc2)c1-c1ccncc1)c1ccc(C(F)(F)F)cc1F` [Example B-0061], 62%; as for `COc1cc(OC)cc(C(=O)NCc2[nH]nc(-c3ccc(F)cc3)c2-c2ccncc2)c1` [Example B-0072], 77%. On to `O=[N+]([O-])c1ccccc1S(=O)(=O)NCc1[nH]nc(-c2ccc(F)cc2)c1-c1ccncc1` [Example B-0113], for which the inhibition at 1 µM amounted to 75%. On the same count and under the same terms, as for `COc1cccc(C(=O)NCc2[nH]nc(-c3ccc(F)cc3)c2-c2ccncc2)c1` [Example B-0075], the figure is 91%; as for `O=C(NCc1ccccc1)NCc1[nH]nc(-c2ccc(F)cc2)c1-c1ccncc1` [Example B-0151], 43%.

As for `O=C(NCc1[nH]nc(-c2ccc(F)cc2)c1-c1ccncc1)c1cccnc1Cl` [Example B-0053], the inhibition at 1 µM was 95%. Still for that read-out and setting: the same measure for `N#Cc1ccccc1S(=O)(=O)NCc1[nH]nc(-c2ccc(F)cc2)c1-c1ccncc1` [Example B-0127]: 82%; for `O=S(=O)(NCc1[nH]nc(-c2ccc(F)cc2)c1-c1ccncc1)c1cccs1` [Example B-0121]: 79%; for `CCOc1ccc2ccccc2c1C(=O)NCc1[nH]nc(-c2ccc(F)cc2)c1-c1ccncc1` [Example B-0059]: 83%.

For `COC(=O)c1ccc(C(=O)NCc2[nH]nc(-c3ccc(F)cc3)c2-c2ccncc2)cc1` [Example B-0082], the inhibition at 1 µM is 47%. For `COc1ccc(OC)c(S(=O)(=O)NCc2[nH]nc(-c3ccc(F)cc3)c2-c2ccncc2)c1` [Example B-0130], the inhibition at 1 µM is 69%.

Staying with this experiment, now noted: @ 10.0 uM; read-out: P38 alpha kinase % inhib @ conc.
As for `CC(=O)Nc1nc(C)c(S(=O)(=O)NCc2[nH]nc(-c3ccc(F)cc3)c2-c2ccncc2)s1` [Example B-0097], the inhibition at 10 µM turned out to be 72%.

Take `COc1cccc(NC(=O)NCc2[nH]nc(-c3ccc(F)cc3)c2-c2ccncc2)c1` [Example B-0160]: the inhibition at 10 µM amounted to 59%. The same measure, in the same setting: the same measure for `CCOC(=O)C(NC(=O)NCc1[nH]nc(-c2ccc(F)cc2)c1-c1ccncc1)C(C)C` (centres unmarked) [Example B-0188]: 70%; for `COC(=O)c1ccccc1NC(=O)NCc1[nH]nc(-c2ccc(F)cc2)c1-c1ccncc1` [Example B-0158]: 58%. As to `CC(C)c1ccccc1NC(=O)NCc1[nH]nc(-c2ccc(F)cc2)c1-c1ccncc1` [Example B-0179], the inhibition at 10 µM amounted to 27%. As to `O=C(NCc1[nH]nc(-c2ccc(F)cc2)c1-c1ccncc1)Nc1ccc(F)cc1` [Example B-0174], the inhibition at 10 µM came to 54%. Same read-out and setting: the same measure for `CCCCCCCCCCS(=O)(=O)NCc1[nH]nc(-c2ccc(F)cc2)c1-c1ccncc1` [Example B-0125]: 70%; for `CC(NC(=O)NCc1[nH]nc(-c2ccc(F)cc2)c1-c1ccncc1)c1cccc2ccccc12` (centres unmarked) [Example B-0184]: 66%.

The experiment is the same for the next values; noted with them: activated human p38 kinase alpha, PHAS-I substrate, 50 μM unlabeled ATP; read-out: p38 kinase IC50.
On to `Cc1n[nH]c(-c2ccccc2O)c1-c1ccncc1` [Example A-16], for which the IC50 stood at 3800 nM.

The same experiment, now with this note: p38α in vitro, PHAS-I assay procedure; read-out: p38^1 IC50.
As to `Fc1ccc(-c2n[nH]cc2-c2ccnc(NC3CCNCC3)c2)cc1` [Example A-277, 4-[3-(4-fluorophenyl)-1H-pyrazol-4-yl]-N-4-piperadinyl-2-pyridinamine], the IC50 amounted to 26 nM.

With `Fc1ccc(CNc2cc(-c3cn(CCN4CCOCC4)nc3-c3ccc(F)cc3)ccn2)cc1` [Example A-285, N-[(4-fluorophenyl)methyl]-4-[3-(4-fluorophenyl)-1-[2-(4-morpholinyl)ethyl]-1H-pyrazol-4-yl]-2-pyridinamine], the IC50 is under 100 nM. For the compound `Fc1ccc(-c2n[nH]c(NCCN3CCOCC3)c2-c2ccncc2)cc1` [Example A-218, N-[5-(4-fluorophenyl)-4-(4-pyridinyl)-1H-pyrazol-3-yl]-4-morpholineethanamine], the IC50 was 44 nM. As to `O=C(O)CNc1[nH]nc(-c2ccc(F)cc2)c1-c1ccncc1` [Example A-293, N-[5-(4-fluorophenyl)-4-(4-pyridinyl)-1H-pyrazol-3-yl]glycine], the IC50 was found to be 730 nM. Still for that read-out and setting: the same measure for `OCCn1cc(-c2ccnc(NCc3ccc(F)cc3)c2)c(-c2ccc(F)cc2)n1` [Example A-289, 3-(4-fluorophenyl)-4-[2-[[(4-fluorophenyl)methyl]amino]-4-pyridinyl]-1H-pyrazole-1-ethanol]: under 100 nM.

Staying with this experiment, now noted: read-out: P38 alpha kinase IC50.
Regarding `N#Cc1ccc(S(=O)(=O)NCc2[nH]nc(-c3ccc(F)cc3)c2-c2ccncc2)cc1` [Example B-0254], the IC50 was 120 nM. As for `CC(NS(=O)(=O)c1ccc(-c2ccccc2)cc1)c1[nH]nc(-c2ccc(F)cc2)c1-c1ccncc1` (centres unmarked) [Example B-0658], the IC50 is 1140 nM.

As to `Cc1ccc(C)c(S(=O)(=O)NCc2[nH]nc(-c3ccc(F)cc3)c2-c2ccncc2)c1` [Example B-0244], the IC50 is 20 nM. Same read-out and setting: the same measure for `C[C@@H](NS(=O)(=O)c1cc(Cl)ccc1Cl)c1[nH]nc(-c2ccc(F)cc2)c1-c1ccncc1` [Example B-0438]: under 100 nM. For the compound `CC(Oc1ccccc1)C(=O)N[C@H](C)c1[nH]nc(-c2ccc(F)cc2)c1-c1ccncc1` (some centres unmarked) [Example B-0381], the IC50 was 220 nM. `CC(NS(=O)(=O)CC12CCC(CC1=O)C2(C)C)c1[nH]nc(-c2ccc(F)cc2)c1-c1ccncc1` (centres unmarked) [Example B-0435]: the IC50 worked out at 300 nM. As to `C[C@@H](NC(=O)c1ccncc1)c1[nH]nc(-c2ccc(F)cc2)c1-c1ccncc1` [Example B-0378], the IC50 was found to be 1100 nM.

With `C[C@@H](NC(=O)c1cccc(Cl)c1)c1[nH]nc(-c2ccc(F)cc2)c1-c1ccncc1` [Example B-0525], the IC50 turned out to be 160 nM. As to `CC1(C)C2CCC1(CS(=O)(=O)NCc1[nH]nc(-c3ccc(F)cc3)c1-c1ccncc1)C(=O)C2` (centres unmarked) [Example B-0227], the IC50 came to 45 nM. `O=S(=O)(NCc1[nH]nc(-c2ccc(F)cc2)c1-c1ccncc1)c1cccc(Cl)c1` [Example B-0239]: the half-inhibitory concentration (IC50) came out at 5730 nM. The same measure, in the same setting: the same measure for `Cc1cccc(Cl)c1S(=O)(=O)NCc1[nH]nc(-c2ccc(F)cc2)c1-c1ccncc1` [Example B-0243]: 39 nM; for `NC(=O)NC(Cc1ccccc1)c1[nH]nc(-c2ccc(F)cc2)c1-c1ccncc1` (centres unmarked) [Example B-0769]: 12700 nM. With `COc1ccc(NC(=O)N[C@H](C)c2[nH]nc(-c3ccc(F)cc3)c2-c2ccncc2)cc1` [Example B-0419], the IC50 was found to be 850 nM. Regarding `COCC(=O)N[C@H](C)c1[nH]nc(-c2ccc(F)cc2)c1-c1ccncc1` [Example B-0366], the IC50 stood at 700 nM. Take `C[C@@H](NS(=O)(=O)c1cccs1)c1[nH]nc(-c2ccc(F)cc2)c1-c1ccncc1` [Example B-0398]: the IC50 is 54 nM. On the same count and under the same terms, the same measure for `CC(=O)OCC(=O)N[C@H](C)c1[nH]nc(-c2ccc(F)cc2)c1-c1ccncc1` [Example B-0353]: 1370 nM. The same measure, in the same setting: as for `C[C@@H](NC(=O)Nc1ccccc1F)c1[nH]nc(-c2ccc(F)cc2)c1-c1ccncc1` [Example B-0410], the figure is 380 nM. Turning to `C[C@@H](NC(=O)c1ccc(F)c(C(F)(F)F)c1)c1[nH]nc(-c2ccc(F)cc2)c1-c1ccncc1` [Example B-0512], the IC50 is 1000 nM.

For `CC(C)(C)C(=O)NCc1[nH]nc(-c2ccc(F)cc2)c1-c1ccncc1` [Example B-0201], the IC50 was determined as 290 nM. On the same count and under the same terms, as for `O=S(=O)(NCc1[nH]nc(-c2ccc(F)cc2)c1-c1ccncc1)c1cc(Cl)ccc1Cl` [Example B-0229], the figure is under 100 nM.

In the case of `O=C(NCc1[nH]nc(-c2ccc(F)cc2)c1-c1ccncc1)c1cc(F)ccc1F` [Example B-0295], the IC50 is 820 nM.

On to `CCc1ccc(S(=O)(=O)N[C@H](C)c2[nH]nc(-c3ccc(F)cc3)c2-c2ccncc2)cc1` [Example B-0460], for which the IC50 came out at 61 nM.

With `C[C@@H](NS(=O)(=O)c1cc(S(=O)(=O)c2ccccc2)cs1)c1[nH]nc(-c2ccc(F)cc2)c1-c1ccncc1` [Example B-0484], the IC50 was determined as 280 nM. With `COc1ccc(S(=O)(=O)N[C@H](C)c2[nH]nc(-c3ccc(F)cc3)c2-c2ccncc2)cc1` [Example B-0397], the IC50 was 170 nM.

For the compound `CC(NS(=O)(=O)c1ccccc1C#N)c1[nH]nc(-c2ccc(F)cc2)c1-c1ccncc1` (centres unmarked) [Example B-0627], the IC50 amounted to 250 nM.
